Source: patent publication US8449886B2, “Combination of anti-CTLA4 antibody with tubulin modulating agents for the treatment of proliferative diseases” (Bristol-Myers Squibb Company, priority 2008, dated 2013)

Tests used:
SA1N fibrosarcoma = SA1N fibrosarcoma tumor model, subcutaneous, established tumors; type: in vivo, mice; settings: for T − C: target size 500 mm^3; for % TGI: IP every 4 days x3, ixabepilone 8 mg/kg, CTLA-4 mAb 20 mg/kg
Procedure: Antibody UC10 (hamster IgG anti-mouse CTLA-4) was produced and purified by BMS (Protein Therapeutics Division, Hopewell, N.J., USA). […] Stock solutions of anti-CTLA-4 were kept at −80° C. and were thawed out at 4° C. prior to use. Control antibody consisted of a polyclonal hamster IgG (Jackson ImmunoResearch, West Grove, Pa.). Dosing solutions of Anti-CTLA-4 and hamster IgG control were prepared weekly in sterile phosphate buffered saline (pH 7.0).
Eight to twelve week-old female BALB/c, A/J or C57/BL6 mice were purchased from Harlan, Indianapolis, Ind. Mice received food and water ad libitum, and were maintained in a controlled environment according to AALAC regulations.
(§1) Tumor cell lines were maintained in vitro. Treatments were initiated when the subcutaneous tumors reached a median size between 100-200 mm^3 (established model) or prior to detection (initiation model). Tumors were measured twice weekly and tumor size (mm^3) was calculated as […]. Body weights were obtained weekly. The tumor models used in these studies are outlined in Table 1.
(§2) The dose levels, routes and dosing schedules are indicated for each particular study described below. Antibodies and chemotherapeutic agents were administered intraperitoneally (i.p.). Each treatment regimen consisted of a cohort of eight to ten mice. Anti-tumor activity, defined as percentage tumor growth inhibition, was calculated as follows: % Tumor Growth Inhibition=100−[(Tt/To)/(Ct/Co)]/100−(Ct/Co) where,
Tt=median tumor size of treated group at the end of treatment
To=median tumor size of treated group at treatment initiation
Ct=median tumor size of control group at the end of treatment
Co=median tumor size at treatment initiation
(§3) In addition, another parameter used to define efficacy was to determine time to tumor progression to target size (T-C), where the time (days) for the median tumor size of control (C) mice to reach target size was subtracted to the time for median tumor size of treated (T) mice to reach target size.
Nonparametric analysis using the Wilcoxon test was used to determine statistical significance.
SA1N fibrosarcoma is an inherently immunogenic tumor line which is sensitive to the effects of CTLA-4 blockade. […] Animals were implanted with SA1N cells subcutaneously and treatments were initiated when tumors reached 100-150 mm^3. Experimental groups consisted of cohorts of 8 mice. […] In the combination groups, CTLA-4 mab was administered one day after each chemotherapy treatment.

EMT-6 mammary carcinoma = EMT-6 mammary carcinoma tumor model; type: in vivo, mice; settings: Study 27; for T − C: IP, treatment from day 3/4, ixabepilone 8 mg/kg, paclitaxel 24 mg/kg, CTLA-4 mAb 20 mg/kg
Procedure: as §1, §2, §3

M109 lung carcinoma [1] = test: M109 lung carcinoma tumor model, initial tumor implantation; type: in vivo, mice; settings: for antitumor effect in M109: Study 40, text and FIG. 1
Procedure: as §1, §2
In these studies treatments with chemotherapeutic agents were initiated when tumors were palpable, on day 3 after tumor implantation. […] As in the studies conducted in the SA1N and EMT-6 tumor lines, CTLA-4 mAb was dosed one day after treatment with chemotherapy.

CT26 colon carcinoma = CT26 colon carcinoma tumor model; type: in vivo, mice; settings: for antitumor effect in CT26: footnotes and FIG. 2
Procedure: as §1
as §2, with “where, […]” for “where,”

[2] = system: paclitaxel-sensitive (A2780, HCT116 and LS174T) and paclitaxel-resistant human colon tumors (HCT116NM46), ovarian carcinoma (Pat-7 and A2780Tax) and breast …; test: Preclinical pharmacology studies of Compound 1 in tumor models; type: in vivo
[3] = system: SA1N fibrosarcoma, M109 lung carcinoma, EMT-6 mammary carcinoma, CT-26 colon carcinoma and B16 melanoma; test: Efficacy studies of CTLA-4 mAb with ixabepilone or paclitaxel across murine tumor models (summary statements); type: in vivo, mice; settings: animals with complete regressions rechallenged with a lethal dose of tumor cells
Procedure: as §1, §2, §3

M109 lung carcinoma [4] = test: M109 rechallenge of tumor-free mice with a lethal M109 cell inoculum; type: in vivo; settings: tumor-free mice by day 97 rechallenged; 5 ixabepilone mice, 8 combination mice
Procedure: To determine whether the combination of CTLA-4+ixabepilone produced a memory immune response able to reject a secondary tumor challenge, animals free of tumors by day 97 were re-challenge with a lethal M109 cell inoculum. For this part of the study, M109 cells were injected into: a) 10 naïve mice (to control for tumor growth); and in study mice free of tumors: b) 5 mice previously treated with ixabepilone and c) 8 mice previously treated with ixabepilone+CTLA-4 mAb. All control mice developed progressive tumors with a median tumor size of 1000 mm^3 10 days later whereas 4 out of 5 mice in the Ixabepilone-treated mice developed tumors (80%).

[5] = Study 17, study terminated day 116

Compound	T − C (SA1N fibrosarcoma; Study 11, study terminated day 52)	T − C (SA1N fibrosarcoma; [5])	antitumor effect in SA1N (SA1N fibrosarcoma; two independent studies)	antitumor effect of single agent in EMT-6 (EMT-6 mammary carcinoma)	T − C (EMT-6 mammary carcinoma)	antitumor effect in M109 (M109 lung carcinoma [1])	antitumor effect in CT26 (CT26 colon carcinoma)	oral efficacy ([2]; oral vs parenteral administration)	antitumor activity ([2]; paclitaxel-sensitive and paclitaxel-resistant tumor models)	protection against subsequent tumor rechallenge [3]	% TGI (SA1N fibrosarcoma; Study 9, calculated Day 36 (last measurement for control group))	T − C (SA1N fibrosarcoma; Study 9, study terminated day 39)	% TGI (SA1N fibrosarcoma; Study 17, calculated Day 33, paclitaxel 24 mg/kg)	% Tumor-free Mice (EMT-6 mammary carcinoma)	% Tumor-Free Mice after Initial Tumor Implantation (M109 lung carcinoma [1]; Study 40, footnote: percentage of animals that develop tumors following implantation on Day 0, chemotherapy from day 3, IP)	mice that developed tumors after M109 rechallenge (M109 lung carcinoma [4])	% Complete Regressions/Total # mice (CT26 colon carcinoma; IP every 4 days x3, CTLA-4 mAb 20 mg/kg days 5, 9, 13, chemotherapy days 4, 8, 12)
5beta,20-Epoxy-1,2alpha,4,7beta,10beta,13alpha-hexahydroxytax-11-en-9-one 4,10-diacetate 2-benzoate 13-ester with (2R,3S)—N-benzoyl-3-phenylisoserine [Paclitaxel]	13 days	0 days	variable effect	ineffective	0 days	did not produce antitumor effects	neither paclitaxel or ixabepilone produced any measurable antitumor activity										
C/C(=C\c1csc(C)n1)[C@@H]1C[C@@H]2O[C@]2(C)CCC[C@H](C)[C@H](O)[C@@H](C)C(=O)C(C)(C)[C@@H](O)CC(=O)N1 (relative stereo) [Compound 1, [1S-[1R*,3R*(E),7R*,10S*,11R*,12R*,16S*]]-7,11-dihydroxy-8,8,10,12,16-pentamethyl-3-[1-methyl-2-(2-methyl-4-thiazolyl)ethenyl]-4-aza-17-oxabicyclo[14.1.0]heptadecane-5,9-dione]								orally efficacious	very impressive and broad spectrum of antitumor activity								
C/C(=C\c1csc(C)n1)[C@@H]1C[C@@H]2O[C@]2(C)CCC[C@H](C)[C@H](O)[C@@H](C)C(=O)C(C)(C)[C@@H](O)CC(=O)N1 [Ixabepilone, (1S,3S,7S,10R,11S,12S,16R)-7,11-dihydroxy-8,8,10,12,16-pentamethyl-3-[(1E)-1-methyl-2-(2-methyl-4-thiazolyl)ethenyl]-17-oxa-4-azabicyclo[14.1.0]heptadecane-5,9-dione]		7 days			19 days	very effective	neither paclitaxel or ixabepilone produced any measurable antitumor activity			only partial protection	92%	11 days	83%	20%	50%	4 out of 5	0/10
